Test results reported in patent publication US6713265B1 (Synaptic Pharmaceutical Corporation, priority 1999, dated 2004).

Key:
[1] = tested on: NPY-induced feeding behavior; test: NPY-induced food intake in satiated rats; assay type: in vivo, rat; conditions: compound 30 mg/kg i.p. then 300 pmole NPY i.c.v., 4 hours, mean ± S.E.M.
Experimental: For these determinations food intake may be measured in normal satiated rats after intracerebroventricular application (i.c.v.) of NPY in the presence or absence of the test compound. Male Sprague Dawley rats (Ciba-Geigy AG, Sisseln, Switzerland) weighing between 180 g and 220 g are used for all experiments. The rats are individually housed in stainless steel cages and maintained on an 11:13 h light-dark cycle (lights off at 18:00 h) at a controlled temperature of 21-23° C. at all times. Water and food (NAFAG lab chow pellets NAFAG, Gossau, Switzerland) are available ad libidum.
Rats under pentobarbital anesthesia are stereotaxically implanted with a stainless steel guide cannula targeted at the right lateral ventricle. Stereotaxic coordinates, with the incisor bar set −2.0 mm below interaural line, are: −0.8 mm anterior and +1.3 mm lateral to bregma. The guide cannula is placed on the dura. Injection cannulas extend the guide cannulas −3.8 mm ventrally to the skull surface. Animals are allowed at least 4 days of recovery postoperatively before being used in the experiments. Cannula placement is checked postoperatively by testing all rats for their drinking response to a 50. ng intracerebroventricular (i.c.v.) injection of angiotensin II. Only rats which drink at least 2.5 ml of water within 30 min. after angiotensin II injection are used in the feeding studies.
All injections are made in the morning 2 hours after light onset. Peptides are injected in artificial cerebrospinal fluid (ACSF) in a volume of 5 μl. ACSF contains: NaCl 124 mM, KCl 3.75 mM, CaCl2 2.5 mM, MgSO4 2.0 mM, KH2PO4 0.22 mM, NaHCO3 26 mM and glucose 10 mM. Porcine-NPY (p-NPY) are dissolved in artificial cerebrospinal fluid (ACS). For i.c.v. injection the test compounds are preferably dissolved in DMSO/water (10%, v/v). The vehicle used for intraperitoneal (i.p.), subcutaneous (s.c.) or oral (p.o.) delivery of compounds is preferably water, physiological saline or DMSO/water (10% v/v), or cremophor/water (20% v/v), respectively.
Animals which are treated with both test compounds and porcine-NPY are treated first with the test compound.
Food intake may be measured by placing preweighed pellets into the cages at the time of NPY injection. Pellets are then removed from the cage subsequently at each selected time point and replaced with a new set of preweighed pellets. The food intake of animals treated with test compound may be calculated as a percentage of the food intake of control animals i.e., animals treated with vehicle. Alternatively, food intake for each group of animals subjected to a particular experimental condition may be expressed as the mean±S.E.M. Statistical analysis is performed by analysis of variance using the Student-Newman-Keuls test.
Food intake is reported as the mean±S.E.M. intake for a group of animals.

D3 = target: T1, D3 (Homo sapiens, UniProt P35462); test: Binding at cloned human dopamine D3 receptor
T1 construct: expressed in transfected cells; host or cells: COS-7

5HT1a = 5HT1a (Homo sapiens, UniProt P08908); test: Binding at cloned human 5HT1a receptor
5HT1Dβ = target: T2, 5HT1Dβ (Homo sapiens, UniProt P28222); test: Binding at cloned human 5HT1Dβ receptor
T2 construct: expressed in transfected cells; host or cells: LM(tk-), line Ltk-11 (ATCC CRL 10422)
T2 sequence (P28222 whole entry): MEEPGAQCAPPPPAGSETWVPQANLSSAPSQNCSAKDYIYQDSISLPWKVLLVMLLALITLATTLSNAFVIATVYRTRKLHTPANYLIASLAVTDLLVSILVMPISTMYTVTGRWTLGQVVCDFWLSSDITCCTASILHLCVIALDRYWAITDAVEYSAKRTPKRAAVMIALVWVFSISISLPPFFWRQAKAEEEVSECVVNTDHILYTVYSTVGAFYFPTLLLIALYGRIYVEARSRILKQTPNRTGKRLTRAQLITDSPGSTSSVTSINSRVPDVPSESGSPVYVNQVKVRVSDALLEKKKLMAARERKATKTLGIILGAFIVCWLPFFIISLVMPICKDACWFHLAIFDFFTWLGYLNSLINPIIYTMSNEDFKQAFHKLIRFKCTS
Experimental: The cell line for the 5HT1Dα receptor, designated as Ltk-8-30-84, was deposited on Apr. […] The cell for the 5HT1Dβ receptor, designated as Ltk-11, was deposited on Apr. […] Membrane preparations comprising these receptors were prepared as described below, and suspended in 50 mM Tris-HCl buffer (pH 7.4 at 37° C.) containing 10 mM MgCl2, 0.2 mM EDTA, 10 μM pargyline, and 0.1% ascorbate. The binding of compounds was determined in competition binding assays by incubation for 30 minutes at 37° C. in the presence of 5 nM [^3H]serotonin. Nonspecific binding was determined in the presence of 10 μM serotonin.

T1 sequence (P35462 whole entry): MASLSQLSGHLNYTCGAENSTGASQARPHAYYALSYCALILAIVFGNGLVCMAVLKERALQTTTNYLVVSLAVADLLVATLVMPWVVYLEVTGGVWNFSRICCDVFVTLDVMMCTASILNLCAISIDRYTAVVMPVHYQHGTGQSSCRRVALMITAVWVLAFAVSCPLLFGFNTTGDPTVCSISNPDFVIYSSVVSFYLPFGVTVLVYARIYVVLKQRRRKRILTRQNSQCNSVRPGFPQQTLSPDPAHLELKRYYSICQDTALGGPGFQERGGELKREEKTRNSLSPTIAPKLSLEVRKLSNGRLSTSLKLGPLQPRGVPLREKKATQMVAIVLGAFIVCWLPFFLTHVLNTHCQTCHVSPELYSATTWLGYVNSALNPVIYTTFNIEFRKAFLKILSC
Sequence of 5HT1a (P08908 whole entry): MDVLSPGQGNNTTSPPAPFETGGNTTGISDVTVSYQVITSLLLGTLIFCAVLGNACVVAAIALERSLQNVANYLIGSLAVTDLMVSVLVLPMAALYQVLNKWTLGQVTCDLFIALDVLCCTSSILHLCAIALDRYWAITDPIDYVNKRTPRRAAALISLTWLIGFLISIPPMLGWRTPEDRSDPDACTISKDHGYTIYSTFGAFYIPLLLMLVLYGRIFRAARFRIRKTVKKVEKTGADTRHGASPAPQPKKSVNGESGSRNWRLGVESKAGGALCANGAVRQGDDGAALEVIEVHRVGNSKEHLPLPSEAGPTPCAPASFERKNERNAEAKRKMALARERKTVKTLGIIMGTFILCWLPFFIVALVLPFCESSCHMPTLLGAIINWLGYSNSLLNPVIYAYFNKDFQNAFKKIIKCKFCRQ

SMILES	Food intake, NPY + compound [1]	pKi D3 (D3)	pKi 5HT1a (5HT1a)	pKi 5HT1Dβ (5HT1Dβ)
Cl.O=S(=O)(NC[C@H]1CC[C@H](CNCC2CCc3ccccc3C2)CC1)c1cccc2ccccc12 (mixture of isomers) [Compound 19]	1.5 ± 0.6 g	6.69	5.54	–
Cl.O=[N+]([O-])c1ccccc1S(=O)(=O)NC[C@H]1CC[C@H](CNCC2CCc3ccccc3C2)CC1 (mixture of isomers) [Compound 20]	–	6.35	–	5.37
Cl.Cl.Nc1ccccc1S(=O)(=O)NC[C@H]1CC[C@H](CNCC2CCc3ccccc3C2)CC1 (mixture of isomers) [Compound 22]	–	–	6.56	5.41
